Results reported in paper PMC8538066, “Purification and Identification of Novel Xanthine Oxidase Inhibitory Peptides Derived from Round Scad (Decapterus maruadsi) Protein Hydrolysates” (Marine Drugs, 2021).
Marks after values point to notes of the source that are not given here.

Columns and labels:
xanthine oxidase (XO) [1] = target: T1, xanthine oxidase (XO) (Bos taurus, UniProt P80457); test: Fluorescence quenching of XO (Stern-Volmer analysis); type: binding; conditions: for Kq (quenching rate constant) / Ksv (Stern-Volmer quenching constant): T 298 K; for Kq (quenching rate constant): Kq = Ksv/τ0, τ0 approximately 10^−8 s; for Ksv (Stern-Volmer quenching constant): XO 0.05 U/mL, peptide 0 to 20.0 × 10^−4 M, excitation 280 nm; for fluorescence quenching mechanism of XO: from Kq versus the collisional quenching threshold
T1 construct: purchased Sigma Chemical Co. (St. Louis, MO, USA)
Experimental: Fluorescence spectra were measured on an F-7000 Spectrofluorimeter (Hitachi Ltd., Ibaraki, Japan) with a 1.0 cm quartz cell and a thermostatic bath. Briefly, 2 mL XO (0.05 U/mL) was titrated by continuous addition of peptides solution (to final concentrations ranging from 0 to 20.0 × 10^−4 M). Then, the obtained mixture was properly mixed and equilibrated for 5 min. The slit widths for excitation and emission were set to 2.5 nm. The fluorescence emission spectra were then measured in the emission wavelength range from 300 to 500 nm, under 280 nm excitation wavelengths. The following Stern-Volmer equation was used to analyze the fluorescence quenching:F0/F = 1 + Ksv [C] = 1 + Kq τ0 [C](3) where F0 and F represent the steady-state fluorescence intensities in the absence and presence of quencher, respectively. Ksv is the Stern-Volmer quenching constant. [C] is the quencher concentration. Kq is the quenching rate constant of biomolecule. Kq = Ksv/τ0, τ0 is the average lifetime of biomolecule in the absence of quencher and its value is approximately 10^−8 s. Ksv used to be estimated by linear regression plot slope of F0/F versus.

xanthine oxidase (XO) [2] = target: T1, xanthine oxidase (XO); test: Reversibility and type of XO inhibition (v vs enzyme plots; Lineweaver-Burk plots); type: biochemical; conditions: for type of XO inhibition: Lineweaver-Burk, peptide 0 and 5 mM, XO 0.05 U/mL, xanthine 0-0.4 mM, Km increased, Vmax decreased; for reversibility of XO inhibition: inhibitor 0, 5, 10 and 20 mM, XO 0 to 0.1 U/mL, xanthine 0.4 mM, 37 °C 30 min, pH 7.5
Experimental: The plots of ν (ΔOD290nm/min) versus the XO (U/mL) at different concentrations of the inhibitors (peptides) were constructed to determine the reversibility of inhibitory behavior on XO [29]. All samples were dissolved in 20 mM sodium carbonate buffer (pH 7.5). Inhibitor solution (0, 5, 10 and 20 mM) and XO solution (from 0 to 0.1 U/mL) were mixed and incubated at 37 °C for 30 min, and the concentration of the substrate xanthine was kept constant at 0.4 mM. The absorbance at 290 nm was then determined. ν is the initial enzymatic reaction rate of the reaction, which was investigated using the same method for the XO inhibitory activity assay.
The type of the inhibition of XO activity by the inhibitors (peptides) was investigated using Lineweaver and Burk kinetic analysis. It was performed via evaluating the initial rate of reaction in the presence and absence of inhibitors at different xanthine concentration. Briefly, the peptide (0 and 5 mM) and XO (0.05 U/mL) were mixed and incubated in the buffer (20 mM sodium carbonate buffer, pH 7.5) for 30 min at 37 °C. Subsequently, different xanthine concentrations (0, 0.05, 0.1, 0.2 and 0.4 mM) were successively added into the solutions. Then, the dynamic changes of the absorbance at 290 nm were recorded, and ν was calculated using the same method above. Km and Vmax values, as corresponding kinetic parameters, were obtained from the Lineweaver and Burk double reciprocal plots.

xanthine oxidase (XO) [3] = target: T1, xanthine oxidase (XO); test: XO inhibitory activity assay (rate of uric acid formation, absorbance 290 nm); type: biochemical; conditions: peptide 5 mM; XO 0.05 U/mL, pre-incubation 37 °C 30 min, xanthine 0.42 mM, 20 mM sodium carbonate buffer pH 7.5, 290 nm; each sample tested three times
Experimental: The XO inhibitory activity was measured by quantifying the rate of uric acid produced in the enzyme-catalyzed reaction. All samples were dissolved in 20 mM sodium carbonate buffer at pH 7.5. […] During the reaction, the dynamic changes of the absorbance of the sample were continuously recorded at 290 nm. Each sample was tested three times. The XO inhibitory activity was calculated using the following formula:Inhibition (%) = (V1 − V2)/V1 × 100%(1) where V1 is the initial enzymatic reaction rate of the blank group, V2 is the initial enzymatic reaction rate of sample group.

Xanthine oxidase [4] = target: Xanthine oxidase (UniProt P80457)
Xanthine oxidase [5] = target: Xanthine oxidase (UniProt P80457); test: other fluorescence titration; quenching of the intrinsic fluorescence of XO (2 mL, 0.05 U/mL) titrated with peptide to 0-20.0 x 10^-4 M; equilibrated 5 min; excitation 280 nm, emission 300-500 nm; 298 K; Stern-Volmer analysis

Xanthine oxidase, sequence (P80457 2-1332): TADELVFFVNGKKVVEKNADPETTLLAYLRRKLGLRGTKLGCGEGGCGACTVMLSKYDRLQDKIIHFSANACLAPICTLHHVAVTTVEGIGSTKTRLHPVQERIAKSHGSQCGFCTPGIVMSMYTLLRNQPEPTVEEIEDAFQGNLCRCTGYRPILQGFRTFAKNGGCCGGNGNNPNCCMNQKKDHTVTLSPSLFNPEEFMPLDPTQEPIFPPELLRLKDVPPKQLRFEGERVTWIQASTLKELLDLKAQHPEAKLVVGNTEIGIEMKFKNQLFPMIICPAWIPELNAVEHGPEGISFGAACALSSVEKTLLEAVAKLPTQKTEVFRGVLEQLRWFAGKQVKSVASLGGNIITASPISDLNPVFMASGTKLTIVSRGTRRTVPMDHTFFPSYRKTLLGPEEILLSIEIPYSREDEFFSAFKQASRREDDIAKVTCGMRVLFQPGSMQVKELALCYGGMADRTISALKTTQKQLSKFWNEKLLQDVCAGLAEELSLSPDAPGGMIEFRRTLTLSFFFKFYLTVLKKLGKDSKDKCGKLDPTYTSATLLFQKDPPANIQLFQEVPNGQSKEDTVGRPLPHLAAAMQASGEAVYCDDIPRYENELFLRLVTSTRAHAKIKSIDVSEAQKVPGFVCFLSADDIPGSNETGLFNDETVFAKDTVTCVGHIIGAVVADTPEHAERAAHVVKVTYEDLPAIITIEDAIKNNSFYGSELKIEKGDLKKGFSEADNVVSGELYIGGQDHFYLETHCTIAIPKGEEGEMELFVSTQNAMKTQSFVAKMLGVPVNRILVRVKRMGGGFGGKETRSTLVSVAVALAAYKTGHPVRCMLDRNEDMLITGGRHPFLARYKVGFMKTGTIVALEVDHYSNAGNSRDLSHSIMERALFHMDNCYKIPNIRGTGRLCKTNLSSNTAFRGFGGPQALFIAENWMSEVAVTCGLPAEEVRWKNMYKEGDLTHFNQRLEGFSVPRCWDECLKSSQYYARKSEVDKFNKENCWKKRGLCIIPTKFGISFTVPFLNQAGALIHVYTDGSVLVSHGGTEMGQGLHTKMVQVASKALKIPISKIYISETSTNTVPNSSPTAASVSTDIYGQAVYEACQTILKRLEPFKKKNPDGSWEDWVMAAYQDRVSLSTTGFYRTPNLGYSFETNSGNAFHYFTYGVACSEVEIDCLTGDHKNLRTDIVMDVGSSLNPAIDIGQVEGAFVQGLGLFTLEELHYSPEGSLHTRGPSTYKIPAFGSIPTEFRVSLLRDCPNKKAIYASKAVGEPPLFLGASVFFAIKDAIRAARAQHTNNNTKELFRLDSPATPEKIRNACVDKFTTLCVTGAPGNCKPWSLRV
T1 sequence (P80457 whole entry): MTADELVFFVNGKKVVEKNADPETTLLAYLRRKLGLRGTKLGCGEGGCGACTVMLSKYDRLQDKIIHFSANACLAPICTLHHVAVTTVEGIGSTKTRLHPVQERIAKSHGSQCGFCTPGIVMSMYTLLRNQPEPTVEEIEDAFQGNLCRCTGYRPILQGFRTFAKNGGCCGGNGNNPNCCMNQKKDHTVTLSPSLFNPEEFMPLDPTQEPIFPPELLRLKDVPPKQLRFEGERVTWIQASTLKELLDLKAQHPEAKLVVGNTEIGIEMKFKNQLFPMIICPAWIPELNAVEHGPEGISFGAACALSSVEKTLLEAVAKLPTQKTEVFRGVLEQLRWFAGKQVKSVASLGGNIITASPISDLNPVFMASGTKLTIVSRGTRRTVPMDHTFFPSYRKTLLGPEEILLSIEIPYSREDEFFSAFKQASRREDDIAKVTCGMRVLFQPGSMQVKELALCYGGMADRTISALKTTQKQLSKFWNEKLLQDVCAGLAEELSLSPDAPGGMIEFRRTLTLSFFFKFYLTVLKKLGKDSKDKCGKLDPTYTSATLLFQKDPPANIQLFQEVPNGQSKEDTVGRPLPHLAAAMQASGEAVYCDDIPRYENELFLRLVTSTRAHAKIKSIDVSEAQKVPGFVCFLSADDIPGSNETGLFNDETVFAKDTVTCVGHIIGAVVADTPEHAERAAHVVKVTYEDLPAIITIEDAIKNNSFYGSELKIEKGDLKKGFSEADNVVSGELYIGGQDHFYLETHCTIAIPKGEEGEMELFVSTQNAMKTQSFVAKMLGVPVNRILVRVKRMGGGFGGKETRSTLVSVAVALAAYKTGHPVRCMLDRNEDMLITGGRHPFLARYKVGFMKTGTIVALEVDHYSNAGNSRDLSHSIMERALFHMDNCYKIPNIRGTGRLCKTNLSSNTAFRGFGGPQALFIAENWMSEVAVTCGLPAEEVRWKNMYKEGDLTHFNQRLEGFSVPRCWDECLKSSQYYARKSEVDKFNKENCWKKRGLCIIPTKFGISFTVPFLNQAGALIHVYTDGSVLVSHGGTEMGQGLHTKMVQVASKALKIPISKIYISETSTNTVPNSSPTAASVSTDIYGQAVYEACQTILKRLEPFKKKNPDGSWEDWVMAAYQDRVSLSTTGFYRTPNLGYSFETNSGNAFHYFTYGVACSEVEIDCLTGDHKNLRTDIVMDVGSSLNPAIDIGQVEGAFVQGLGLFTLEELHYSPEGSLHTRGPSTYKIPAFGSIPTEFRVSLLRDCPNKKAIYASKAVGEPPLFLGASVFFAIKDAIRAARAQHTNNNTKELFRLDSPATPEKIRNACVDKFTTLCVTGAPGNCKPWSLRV

FPFP [tetrapeptide identified from round scad hydrolysate fraction F2, chemically synthesized]
Kq (quenching rate constant) (xanthine oxidase (XO) [1]): 5.608e+11 M⁻¹ s⁻¹
Ksv (Stern-Volmer quenching constant) (xanthine oxidase (XO) [1]): 5608 M⁻¹
fluorescence quenching mechanism of XO (xanthine oxidase (XO) [1]): static
type of XO inhibition (xanthine oxidase (XO) [2]): mixed inhibitor
reversibility of XO inhibition (xanthine oxidase (XO) [2]): reversible
XO Inhibitory Activity (%) (xanthine oxidase (XO) [3]): 20.09 ± 2.41 ^a %

FPSV [tetrapeptide identified from round scad hydrolysate fraction F2, chemically synthesized]
Kq (quenching rate constant) (xanthine oxidase (XO) [1]): 5.42e+10 M⁻¹ s⁻¹
Ksv (Stern-Volmer quenching constant) (xanthine oxidase (XO) [1]): 542 M⁻¹
fluorescence quenching mechanism of XO (xanthine oxidase (XO) [1]): static
type of XO inhibition (xanthine oxidase (XO) [2]): mixed inhibitor
reversibility of XO inhibition (xanthine oxidase (XO) [2]): reversible
XO Inhibitory Activity (%) (xanthine oxidase (XO) [3]): 22.61 ± 1.81 ^a %

KGFP [tetrapeptide identified from round scad hydrolysate fraction F2, chemically synthesized]
XO Inhibitory Activity (%) (xanthine oxidase (XO) [3]): 5.43 ± 0.20 ^c %

WPDGR [pentapeptide identified from round scad hydrolysate fraction F2, chemically synthesized]
XO Inhibitory Activity (%) (xanthine oxidase (XO) [3]): 16.21 ± 0.78 ^b %

FPFP
XO inhibitory activity (%) at 5 mM peptide (rate of uric acid formation, absorbance at 290 nm) (Xanthine oxidase [4]): 20.1%
Kq (quenching rate constant) (Xanthine oxidase [5]): 5.61e+11 M⁻¹ s⁻¹
Ksv (Stern-Volmer quenching constant) (Xanthine oxidase [5]): 5610 M⁻¹

KGFP
XO inhibitory activity (%) at 5 mM peptide (rate of uric acid formation, absorbance at 290 nm) (Xanthine oxidase [4]): 5.43%

WPDGR
XO inhibitory activity (%) at 5 mM peptide (rate of uric acid formation, absorbance at 290 nm) (Xanthine oxidase [4]): 16.2%

FPSV
XO inhibitory activity (%) at 5 mM peptide (rate of uric acid formation, absorbance at 290 nm) (Xanthine oxidase [4]): 22.6%
Kq (quenching rate constant) (Xanthine oxidase [5]): 5.42e+10 M⁻¹ s⁻¹
Ksv (Stern-Volmer quenching constant) (Xanthine oxidase [5]): 542 M⁻¹
